In US12569563B2, “Selective HDAC6 degraders and methods of use thereof” (DANA-FARBER CANCER INSTITUTE, INC., priority 2019, dated 2026):

Columns and labels:
Format in all cases: biochemical
HDAC5 = biological target: T1, HDAC5 (Homo sapiens, UniProt Q9UQL6); experiment: HDAC assay from Reaction Biology, Class2A substrate; details: 10-dose response curve; read-out: Compound IC50 HDAC5
T1 construct: purchased Reaction Biology
Description: (§1) Compounds 1 and 3 were tested in a HDAC assay from Reaction Biology® against 10 different HDACs.
(§2) Base Reaction buffer: 50 mM Tris-HCl, pH8.0, 137 mM NaCl, 2.7 mM KCl, and 1 mM MgCl2,
(§3) Add fresh: 1 mg/ml BSA, 1% DMSO
(§4) • (HDAC8 only substrate: 50 μM, Arg-His-Lys(Ac)-Lys(Ac))-AMC Class2A Substrate (HDAC4, HDAC5, HDAC7, and HDAC9): Boc-Lys(trifluoroacetyl)-AMC For SIRTs 1-3, general Class1 HDAC substrate and 500 μM NAD+ For SIRT5, Ac-Lys-succ and 500 μM NAD+ Reaction Procedure Deacetylation Step • 1. Delivered 2× enzyme in wells of reaction plate except in the control wells and added buffer to control wells. • 2. Delivered compounds in 100% DMSO into the enzyme mixture by Acoustic technology (Echo550; nanoliter range). Spin down and pre-incubation. • 3. Delivered 2× Substrate Mixture (Fluorogenic HDAC Substrate and co-factor if applicable) in all reaction wells to initiate the reaction. Spin and shake. • 4. Incubated for 30 min for Class 2A, 1 hr for HDAC1, 2, 3, and 6, and 2 hr for the rest of HDACs and SIRTs at 30° C. with seal. Development Step • 5. Added Developer with Trichostatin A (or Nicotinamide for SIRTs) to stop the reaction and to generate fluorescent color. • 6. The fluorescence that was generated was detected with excitation (Ex) at […] and emission (Em) at 460 nM by the EnVision Multilabel Plate Reader (PerkinElmer®, Santa Clara, CA, USA). • 7. […]

HDAC6 = biological target: T2, HDAC6 (Homo sapiens, UniProt Q9UBN7); experiment: HDAC assay from Reaction Biology, fluorogenic substrate; design: purchased Reaction Biology; details: 10-dose response curve; read-out: Compound IC50 HDAC6
T2 sequence (Q9UBN7 1-1215): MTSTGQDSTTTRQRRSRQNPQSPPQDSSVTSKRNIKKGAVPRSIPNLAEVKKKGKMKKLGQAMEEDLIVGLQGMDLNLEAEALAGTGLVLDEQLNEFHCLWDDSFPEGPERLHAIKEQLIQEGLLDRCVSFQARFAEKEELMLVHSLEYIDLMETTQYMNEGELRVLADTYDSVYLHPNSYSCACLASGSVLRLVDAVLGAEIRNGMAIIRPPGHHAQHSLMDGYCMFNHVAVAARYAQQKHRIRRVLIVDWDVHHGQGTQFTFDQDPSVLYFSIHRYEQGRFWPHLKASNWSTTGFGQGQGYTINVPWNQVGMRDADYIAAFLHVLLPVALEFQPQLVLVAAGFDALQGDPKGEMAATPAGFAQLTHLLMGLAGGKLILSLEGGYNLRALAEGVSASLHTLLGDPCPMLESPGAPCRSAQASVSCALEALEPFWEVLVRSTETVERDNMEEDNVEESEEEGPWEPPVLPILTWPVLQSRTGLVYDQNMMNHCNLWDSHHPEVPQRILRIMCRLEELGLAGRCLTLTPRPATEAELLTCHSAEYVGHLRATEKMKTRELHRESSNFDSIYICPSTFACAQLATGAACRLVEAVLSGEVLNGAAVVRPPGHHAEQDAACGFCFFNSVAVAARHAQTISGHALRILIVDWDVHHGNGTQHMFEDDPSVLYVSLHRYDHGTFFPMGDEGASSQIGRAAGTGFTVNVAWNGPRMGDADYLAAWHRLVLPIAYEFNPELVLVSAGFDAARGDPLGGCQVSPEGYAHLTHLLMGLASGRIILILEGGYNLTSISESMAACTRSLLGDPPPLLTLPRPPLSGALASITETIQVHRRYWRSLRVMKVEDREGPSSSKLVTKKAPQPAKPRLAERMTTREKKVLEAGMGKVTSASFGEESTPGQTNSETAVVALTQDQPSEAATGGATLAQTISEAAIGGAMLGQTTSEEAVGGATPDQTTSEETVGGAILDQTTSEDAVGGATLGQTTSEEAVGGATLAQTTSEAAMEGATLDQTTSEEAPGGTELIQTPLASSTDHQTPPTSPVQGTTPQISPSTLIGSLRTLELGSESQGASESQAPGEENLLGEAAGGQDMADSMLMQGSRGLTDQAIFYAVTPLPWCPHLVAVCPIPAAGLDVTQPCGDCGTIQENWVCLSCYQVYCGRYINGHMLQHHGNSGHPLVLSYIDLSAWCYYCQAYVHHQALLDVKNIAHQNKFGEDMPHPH
Description: as §1, §2, §3
(§5) Fluorogenic HDAC General Substrate (HDAC1, HDAC2, HDAC3, HDAC6, HDAC10, and HDAC11): 50 μM, Arg-His-Lys-Lys(Ac)-AMC
as §4, with “Added Developer with Trichostatin A (or Nicotinamide for SIRTs) to stop the reaction and to generate fluorescent color. • 6.” left out

HDAC8 = biological target: T3, HDAC8 (Homo sapiens, UniProt Q9BY41); experiment: HDAC assay from Reaction Biology, HDAC8 substrate; details: 10-dose response curve; read-out: Compound IC50 HDAC8
T3 construct: purchased Reaction Biology
T3 sequence (Q9BY41 1-377): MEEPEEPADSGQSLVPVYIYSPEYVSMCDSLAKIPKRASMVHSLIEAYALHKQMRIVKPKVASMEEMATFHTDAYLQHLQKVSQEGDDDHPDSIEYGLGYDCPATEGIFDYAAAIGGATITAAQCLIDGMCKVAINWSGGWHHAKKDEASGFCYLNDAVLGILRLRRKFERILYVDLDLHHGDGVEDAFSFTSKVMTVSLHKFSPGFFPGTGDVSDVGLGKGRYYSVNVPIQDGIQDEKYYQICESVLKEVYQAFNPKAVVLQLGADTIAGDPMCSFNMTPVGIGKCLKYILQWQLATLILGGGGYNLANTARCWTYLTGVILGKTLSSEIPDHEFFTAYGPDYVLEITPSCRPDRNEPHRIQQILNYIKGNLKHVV
Description: as §1, §2, §3, §4

HDAC2 = biological target: T4, HDAC2 (Homo sapiens, UniProt Q92769); experiment: HDAC assay from Reaction Biology, fluorogenic substrate; details: 10-dose response curve; read-out: Compound IC50 HDAC2
T4 construct: purchased Reaction Biology
T4 sequence (Q92769 whole entry): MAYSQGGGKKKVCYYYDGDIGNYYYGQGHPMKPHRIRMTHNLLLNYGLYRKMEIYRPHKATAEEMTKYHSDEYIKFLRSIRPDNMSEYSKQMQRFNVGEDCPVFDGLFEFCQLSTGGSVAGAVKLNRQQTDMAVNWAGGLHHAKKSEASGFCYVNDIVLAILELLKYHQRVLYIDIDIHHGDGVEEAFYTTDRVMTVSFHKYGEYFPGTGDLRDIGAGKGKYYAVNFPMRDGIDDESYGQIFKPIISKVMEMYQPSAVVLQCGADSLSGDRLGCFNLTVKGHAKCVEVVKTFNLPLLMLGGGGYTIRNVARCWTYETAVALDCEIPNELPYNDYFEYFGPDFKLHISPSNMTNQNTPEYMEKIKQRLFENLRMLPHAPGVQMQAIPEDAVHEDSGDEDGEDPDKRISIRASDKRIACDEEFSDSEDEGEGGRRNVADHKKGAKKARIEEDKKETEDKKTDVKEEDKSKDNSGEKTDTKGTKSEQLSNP
Description: as §1, §2, §3, §5
(§6) • (HDAC8 only substrate: 50 μM, Arg-His-Lys(Ac)-Lys(Ac))-AMC Class2A Substrate (HDAC4, HDAC5, HDAC7, and HDAC9): Boc-Lys(trifluoroacetyl)-AMC For SIRTs 1-3, general Class1 HDAC substrate and 500 μM NAD+ For SIRT5, Ac-Lys-succ and 500 μM NAD+ Reaction Procedure Deacetylation Step • 1. Delivered 2× enzyme in wells of reaction plate except in the control wells and added buffer to control wells. • 2. Delivered compounds in 100% DMSO into the enzyme mixture by Acoustic technology (Echo550; nanoliter range). Spin down and pre-incubation. • 3. Delivered 2× Substrate Mixture (Fluorogenic HDAC Substrate and co-factor if applicable) in all reaction wells to initiate the reaction. Spin and shake. • 4. Incubated for 30 min for Class 2A, 1 hr for HDAC1, 2, 3, and 6, and 2 hr for the rest of HDACs and SIRTs at 30° C. with seal. Development Step • 5. Added Developer with Trichostatin A (or Nicotinamide for SIRTs) to stop the reaction and to generate fluorescent color. • 6. The fluorescence that was generated was detected with excitation (Ex) at […] and emission (Em) at 460 nM by the EnVision Multilabel Plate Reader (PerkinElmer®, Santa Clara, CA, USA). • 7. IC50 values, presented in Table 1, were derived from a 10-dose response curve.

HDAC3 = biological target: T5, HDAC3 (Homo sapiens, UniProt O15379); experiment: as above; details: 10-dose response curve; read-out: Compound IC50 HDAC3
T5 construct: purchased Reaction Biology
T5 sequence (O15379 whole entry): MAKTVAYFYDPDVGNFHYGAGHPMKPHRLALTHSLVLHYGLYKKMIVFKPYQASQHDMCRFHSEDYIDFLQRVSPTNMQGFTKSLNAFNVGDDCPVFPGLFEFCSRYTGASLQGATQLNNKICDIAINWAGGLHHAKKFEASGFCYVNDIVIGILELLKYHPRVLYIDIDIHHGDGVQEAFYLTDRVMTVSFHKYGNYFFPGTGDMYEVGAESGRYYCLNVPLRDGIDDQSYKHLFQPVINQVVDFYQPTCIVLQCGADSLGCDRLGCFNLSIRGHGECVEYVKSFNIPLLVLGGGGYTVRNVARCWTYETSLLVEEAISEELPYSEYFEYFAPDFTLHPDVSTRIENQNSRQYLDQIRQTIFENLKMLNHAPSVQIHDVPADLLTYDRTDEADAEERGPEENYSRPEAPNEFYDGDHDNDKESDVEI
T5 sequence (Q9Y618 395-489 partner limits assumed): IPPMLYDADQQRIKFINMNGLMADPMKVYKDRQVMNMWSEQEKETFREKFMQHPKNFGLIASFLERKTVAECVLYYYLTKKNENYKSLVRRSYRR
Description: as §1, §2, §3, §5, §6

HDAC1 = biological target: T6, HDAC1 (Homo sapiens, UniProt Q13547); experiment: as above; details: 10-dose response curve; read-out: Compound IC50 HDAC1
T6 construct: purchased Reaction Biology
T6 sequence (Q13547 whole entry): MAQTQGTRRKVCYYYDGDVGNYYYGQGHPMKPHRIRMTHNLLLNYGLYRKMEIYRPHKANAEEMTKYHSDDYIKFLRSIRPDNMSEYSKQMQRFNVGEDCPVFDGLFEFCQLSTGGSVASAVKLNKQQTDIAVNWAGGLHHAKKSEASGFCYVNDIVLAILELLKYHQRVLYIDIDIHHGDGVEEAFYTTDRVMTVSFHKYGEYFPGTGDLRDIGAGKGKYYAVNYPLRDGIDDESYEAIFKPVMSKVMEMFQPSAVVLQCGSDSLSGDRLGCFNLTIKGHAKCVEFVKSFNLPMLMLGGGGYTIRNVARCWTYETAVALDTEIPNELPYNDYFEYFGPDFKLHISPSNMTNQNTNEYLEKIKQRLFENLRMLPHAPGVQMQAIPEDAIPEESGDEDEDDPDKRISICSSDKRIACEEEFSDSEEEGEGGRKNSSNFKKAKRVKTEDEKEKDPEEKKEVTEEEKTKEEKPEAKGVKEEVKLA
Description: as §1, §2, §3, §5, §6

T1 sequence (Q9UQL6 whole entry): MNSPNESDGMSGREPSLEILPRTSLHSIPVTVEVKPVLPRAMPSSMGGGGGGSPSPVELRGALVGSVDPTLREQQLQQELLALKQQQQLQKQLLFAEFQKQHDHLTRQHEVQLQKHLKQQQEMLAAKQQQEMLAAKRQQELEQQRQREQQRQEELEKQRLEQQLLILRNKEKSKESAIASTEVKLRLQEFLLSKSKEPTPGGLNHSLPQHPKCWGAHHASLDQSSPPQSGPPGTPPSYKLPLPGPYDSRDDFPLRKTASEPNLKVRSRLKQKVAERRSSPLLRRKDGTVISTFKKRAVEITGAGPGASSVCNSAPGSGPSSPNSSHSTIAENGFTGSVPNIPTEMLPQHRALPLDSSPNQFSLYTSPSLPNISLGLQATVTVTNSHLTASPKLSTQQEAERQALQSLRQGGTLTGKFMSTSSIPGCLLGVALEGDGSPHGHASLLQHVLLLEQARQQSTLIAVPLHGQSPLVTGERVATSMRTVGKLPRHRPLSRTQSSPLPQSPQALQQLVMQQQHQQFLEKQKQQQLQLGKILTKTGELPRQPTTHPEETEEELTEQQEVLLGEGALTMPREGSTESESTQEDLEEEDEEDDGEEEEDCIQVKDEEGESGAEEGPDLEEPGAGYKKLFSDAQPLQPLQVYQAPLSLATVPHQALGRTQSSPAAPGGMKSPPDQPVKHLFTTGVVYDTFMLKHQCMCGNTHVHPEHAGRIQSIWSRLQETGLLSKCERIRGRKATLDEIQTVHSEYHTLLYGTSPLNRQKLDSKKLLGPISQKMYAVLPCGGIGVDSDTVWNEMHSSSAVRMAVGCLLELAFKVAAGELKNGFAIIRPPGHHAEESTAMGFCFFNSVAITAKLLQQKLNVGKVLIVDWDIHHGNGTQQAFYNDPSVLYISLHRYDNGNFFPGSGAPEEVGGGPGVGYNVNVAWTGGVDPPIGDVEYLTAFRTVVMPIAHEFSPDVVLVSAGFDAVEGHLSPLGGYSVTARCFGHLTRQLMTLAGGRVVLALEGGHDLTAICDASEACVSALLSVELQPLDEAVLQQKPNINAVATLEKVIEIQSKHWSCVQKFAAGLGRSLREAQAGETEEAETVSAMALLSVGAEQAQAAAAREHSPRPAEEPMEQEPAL

Row | Structure (SMILES) | IC50 (HDAC5) [nM] | IC50 (HDAC6) [nM] | IC50 (HDAC8) [nM] | IC50 (HDAC2) [nM] | IC50 (HDAC3) [nM] | IC50 (HDAC1) [nM]
1 | CN(C(=O)CCCNc1cccc2c1C(=O)N(C1CCC(=O)NC1=O)C2=O)c1ccc(NC(=O)CCCCCCC(=O)NO)cc1 (stereo not drawn) [Compound 1, N^1-(4-(4-((2-(2,6-dioxopiperidin-3-yl)-1,3-dioxoisoindolin-4-yl)amino)-N-methylbutanamido)phenyl)-N^8-hydroxyoctanediamide] | 5750 | 48.5 | 621 | 2470 | 1440 | 1040
2 | CN(C(=O)CCCCCCCNc1cccc2c1C(=O)N(C1CCC(=O)NC1=O)C2=O)c1ccc(NC(=O)CCCCCCC(=O)NO)cc1 (stereo not drawn) [Compound 3, N^1-(4-(8-((2-(2,6-dioxopiperidin-3-yl)-1,3-dioxoisoindolin-4-yl)amino)-N-methyloctanamido)phenyl)-N^8-hydroxyoctanediamide] | 7830 | 40.1 | 400 | 14400 | 3430 | 4410
